{"source": "paper PMC8488497", "about": "“In silico and in vitro analysis of an Aspergillus niger chitin deacetylase to decipher its subsite sugar preferences” (The Journal of Biological Chemistry, 2021)", "target": "T1, AngCDA (Aspergillus niger, UniProt A2QZC8)", "T1 construct": "gene An12g04480; signal peptide (residues 1-19) removed; N- and C-terminal Strep-tag II; E. coli Rosetta 2 (DE3); monomer; the crystal used a pelB / C-terminal Strep-tag II construct", "T1 sequence (A2QZC8 20-239)": "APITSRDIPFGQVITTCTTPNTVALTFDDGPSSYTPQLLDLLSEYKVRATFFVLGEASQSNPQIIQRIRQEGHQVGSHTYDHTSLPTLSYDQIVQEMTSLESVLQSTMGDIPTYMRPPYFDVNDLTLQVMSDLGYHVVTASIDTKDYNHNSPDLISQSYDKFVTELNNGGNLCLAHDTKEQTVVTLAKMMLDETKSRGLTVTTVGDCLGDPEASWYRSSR", "test": "HILIC-ESI-MS product quantification and sequencing", "format": "biochemical", "details": "deacetylation; 0.5 mM substrate, 50 mM TEA pH 7, 37 °C"}
{"smiles": "CC(=O)N[C@H]1[C@H](O[C@H]2[C@H](O)[C@@H](NC(C)=O)C(O)O[C@@H]2CO)O[C@H](CO)[C@@H](O[C@@H]2O[C@H](CO)[C@@H](O[C@@H]3O[C@H](CO)[C@@H](O)[C@H](O)[C@H]3NC(C)=O)[C@H](O)[C@H]2NC(C)=O)[C@@H]1O", "note": "(some centres unmarked) [A4, chitotetraose]", "values": [{"measurement": "HILIC-ESI-MS product quantification and sequencing", "result": "mode of action of AngCDA deacetylating chitotetraose (A4)"}]}
{"smiles": "CC(=O)N[C@H]1[C@H](O[C@H]2[C@H](O)[C@@H](NC(C)=O)[C@H](O[C@H]3[C@H](O)[C@@H](NC(C)=O)C(O)O[C@@H]3CO)O[C@@H]2CO)O[C@H](CO)[C@@H](O[C@@H]2O[C@H](CO)[C@@H](O[C@@H]3O[C@H](CO)[C@@H](O)[C@H](O)[C@H]3NC(C)=O)[C@H](O)[C@H]2NC(C)=O)[C@@H]1O", "note": "(some centres unmarked) [A5]", "values": [{"measurement": "HILIC-ESI-MS product quantification and sequencing", "result": "mode of action of AngCDA deacetylating chitopentaose (A5)"}]}
